The molecules below were run against T1, hPRB (Homo sapiens, UniProt P06401) (assay: PR transactivation assay (GRE2-Luc) in MDA-MB-231 iPRAB cells conditionally expressing hPRB). Conditions: not given.
T1 sequence (P06401 1-933): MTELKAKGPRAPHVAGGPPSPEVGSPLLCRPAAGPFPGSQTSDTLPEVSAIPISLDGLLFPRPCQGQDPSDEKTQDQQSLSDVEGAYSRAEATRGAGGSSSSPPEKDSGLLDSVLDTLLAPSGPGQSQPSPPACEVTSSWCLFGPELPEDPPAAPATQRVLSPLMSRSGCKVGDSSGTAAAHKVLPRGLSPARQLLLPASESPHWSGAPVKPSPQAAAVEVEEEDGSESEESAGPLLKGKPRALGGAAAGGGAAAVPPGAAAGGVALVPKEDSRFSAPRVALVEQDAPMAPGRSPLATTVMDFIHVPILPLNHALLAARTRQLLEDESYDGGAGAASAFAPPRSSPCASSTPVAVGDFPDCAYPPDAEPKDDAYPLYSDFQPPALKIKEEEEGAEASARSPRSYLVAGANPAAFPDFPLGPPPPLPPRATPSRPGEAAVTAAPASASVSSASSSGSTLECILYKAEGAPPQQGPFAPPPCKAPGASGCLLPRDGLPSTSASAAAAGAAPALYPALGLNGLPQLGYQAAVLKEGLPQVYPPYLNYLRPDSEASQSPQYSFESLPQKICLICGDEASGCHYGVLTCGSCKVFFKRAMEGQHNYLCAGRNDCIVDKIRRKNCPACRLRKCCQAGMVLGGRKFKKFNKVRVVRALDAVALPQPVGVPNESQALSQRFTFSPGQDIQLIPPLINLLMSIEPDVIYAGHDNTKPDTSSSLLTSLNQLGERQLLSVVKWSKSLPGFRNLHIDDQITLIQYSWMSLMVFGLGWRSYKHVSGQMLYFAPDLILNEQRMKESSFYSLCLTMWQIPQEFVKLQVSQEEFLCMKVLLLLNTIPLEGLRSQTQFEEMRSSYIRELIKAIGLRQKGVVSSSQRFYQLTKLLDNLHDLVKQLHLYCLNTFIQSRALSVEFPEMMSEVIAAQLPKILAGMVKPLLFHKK
Assay type: cell-based
Parameters: expressed in transfected cells
Description: Establishment of the MDA-MB-231 iPRAB cells.
The PR negative breast cancer cells MDA-MB-231 were routinely maintained in RPMI 1640 medium with L-glutamine enriched with 5% fetal calf serum (FCS) and supplemented with antibiotics (penicillin 100 UI/ml, streptomycin 100 μg/ml). MDA MB-231 iPRAB cells allowing the bi-inducible expression of PRA and PRB isoforms were generated in two steps. First, pZX-TR vector expressing inducer proteins required for Tet-on (Tet-Repressor) and Ecdysone receptor-based system (EcR and RXR hybrids) was engineered using pcDNA6-TR (T-REx system, Invitrogen) and pZRD (Lessard, J. Prostate 2007 67, 808) derived from Rheoswitch system (NE Biolabs). Transfection of MDA-MB-231 cells by pZX-TR (harboring zeocin resistant gene) was performed using Lipofectamine 2000 (Invitrogen). Three hundred clones resistant to Zeocin (1 μg/ml) were isolated, amplified and screened for the proper functioning of both RheoSwitch and Tet-on inducible systems by transient transfection with pGal-4-luciferase or pTO-luciferase reporter genes generated as described. Luciferase activity was determined in the absence or presence of respective inducer ligand RSL1 (diacylhydrazine, a non-steroidal agonist of ecdysone, NE Biolabs) (500 nM) or Doxycycline (Dox, a tetracyclin analog, Sigma-Aldrich) (1 μg/ml) after 24 h. The clone that produced minimal background in the absence of both RSL1 and Dox and high inducible expression level on reporter gene assays by both systems was finally selected, verified and amplified (clone 250). This cell line was then further stably transfected by PR isoforms expressing vectors specifically engineered: pGaluas-PRA (harboring neomycin resistant gene) expressing PRA under the control of Gal4 Upstream Activating Sequences upstream of a truncated CMV promoter, and pTO-PRB (harboring blasticidin resistant gene) expressing PRB under the control of TetO2 responsive elements downstream of the full CMV promoter. Clones resistant to zeocin (1 μg/ml), neomycin (500 μg/ml) and blasticidin (2 μg/ml) were then isolated, amplified and screened by Western blot for PR isoforms expression in the absence or presence of both RSL1 (500 nM) and Dox (1 μg/ml) after 24 h. […] It was used to evaluate APRn properties and was defined as MDA-MB-231 iPRAB cells conditionally expressing PRB in the presence of doxycyclin (1 μg/ml).
PR Transactivation Assays in MDA-MB-231 iPRAB Cells.
The cells were cultured in 96-well plates in RPMI 1640 medium with L-glutamine without phenol red, enriched with 5% DCC serum containing inducer ligand RSL1 (500 nM) or Dox (1 μg/ml) for PRA or PRB expression during 24 h. Cells were then transfected with GRE2-Luc (100 ng) and β-galactosidase (20 ng) plasmids during 6 h, using Lipofectamine 2000 (Invitrogen). […] Whole cell extracts were collected using lysis buffer (Promega). Luciferase and β-galactosidase activity or total protein contents (BCA assay) were determined using a luminometer (Victor 378, Perkin Elmer). Luciferase activity was normalized by β-galactosidase activity or total protein contents.
All the synthesized APRn were classified in 4 series depending on the nature of their C3 substituent (R1/R′1 groups). The first one (series 1) includes APRn with no C3 substituent (R1═R′1═H) whereas series 2, 3 and 4 are related to APRn bearing a methoxyl (R1═OMe), a hydroxyl (R1═OH) and a fluorine atom (R1═F), respectively. The agonist/antagonist activities of APRn were determined either in human HEK293T cells transiently expressing hPRB or in human MDA-MB-231 iPRAB cells conditionally expressing hPRB, by using a luciferase reporter gene placed under the control of a glucocorticoid response element (GRE2-Luc). The APRn “agonist efficacy” was determined from the luciferase activity measured in the presence of APRn (1 μM). […] The “agonist efficacy” and “antagonist efficacy” are expressed as defined in the biological protocols section.
With `C[C@@H]1CCC2C3CC=C4C[C@@H](F)CC[C@]4(C)C3CC[C@]2(C)[C@H]1F` (stereo partly drawn) [APR-19, 3β,17α-Difluoro-17α-methyl-D-Homo-pregn-5-ene] the IC50 was about 500 nM.
In the case of `CC#C[C@]1(O)CCC2C3CC[C@H]4C[C@@H](F)CC[C@]4(C)C3CC[C@@]21C` (stereo partly drawn) [APR-43, 3β-Fluoro-17α-(1-propynyl)-5α-androstan-17β-ol], the IC50 is reported as about 500 nM.
`C[C@]12CCC3C(CC=C4C[C@@H](F)CC[C@@H]43)C1CCC2=O` (stereo partly drawn) [APR-47, 3β-Fluoro-19-nor-androst-5-en-17-one] was tested, and the IC50 was about 500 nM.
`CC#C[C@]1(O)CCC2C3CC=C4C[C@@H](F)CC[C@@H]4C3CC[C@@]21C` (stereo partly drawn) [APR-51, 3β-Fluoro-17α-(1-propynyl)-19-nor-androst-5-en-17β-ol] was tested, and the IC50 was about 500 nM.
`CC#C[C@]1(O)CCC2C3CC[C@H]4CCCC[C@@H]4C3CC[C@@]21C` (stereo partly drawn) [APR-54, 17α-(1-Propynyl)-19-nor-5-androstan-17β-ol] was tested, and the IC50 was about 500 nM.

Same assay, conditions: dose response curves, MDA-MB-231 iPRAB cells expressing hPRB, FIG. 9; read-out: IC50
`CC(=O)[C@H]1CC[C@H]2[C@@H]3CC=C4C[C@@H](F)CC[C@]4(C)[C@H]3CC[C@]12C` [APR-16, 3β-Fluoropregn-5-en-20-one] gave an IC50 of about 500 nM.

— patent US20130203718A1 (priority 2010, published 2013)
